According to patent US5574008A, “Biologically active fragments of glucagon-like insulinotropic peptide” (Eli Lilly and Company, priority 1994, dated 1996):

Target: T1, rat GLP-1 receptor (Rattus norvegicus, UniProt P32301)
T1 construct: expressed in transfected cells; host or cells: Dihydrofolate reductase-deficient Chinese hamster ovary cell line DXB-11; membrane preparation
T1 sequence (P32301 22-463): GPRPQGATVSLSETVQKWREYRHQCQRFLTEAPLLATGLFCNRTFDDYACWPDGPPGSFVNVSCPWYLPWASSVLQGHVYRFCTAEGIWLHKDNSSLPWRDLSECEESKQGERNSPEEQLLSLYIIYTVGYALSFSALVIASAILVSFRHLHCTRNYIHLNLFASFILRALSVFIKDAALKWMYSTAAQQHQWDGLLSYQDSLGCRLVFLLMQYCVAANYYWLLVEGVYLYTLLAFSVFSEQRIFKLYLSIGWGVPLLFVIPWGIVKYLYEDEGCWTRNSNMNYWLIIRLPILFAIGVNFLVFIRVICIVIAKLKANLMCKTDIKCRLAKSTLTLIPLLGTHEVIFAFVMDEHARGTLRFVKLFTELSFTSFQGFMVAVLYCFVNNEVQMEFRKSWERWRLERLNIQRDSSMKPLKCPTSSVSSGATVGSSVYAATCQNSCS
Experiment: In vitro GLP-1 agonist cAMP assay (particle concentration fluorescence immunoassay, membrane preparation)
Assay type: biochemical
Method: Cells were grown to confluency in 10% dialyzed fetal bovine serum/high glucose Dulbecco's Modified Eagle Medium with 0.1% proline at 37° C. The cell were then harvested, and membranes were prepared by first washing the cells with phosphate buffered saline (PBS), then twice with cold buffer (25 mM 4-(2-hydroxyethyl)-1 piperazineethanesulfonic acid (HEPES), 2 mM MgCl2, 1 mM ethylenedinitrilo-tetraacetic acid (EDTA), 20 μg/ml Leupeptin, 1 mM phenylmethyl sulfonyl fluoride (PMSF), 2 μg/ml Aprotinin, 50 μg/ml Trypsin Inhibitor, pH 8.0). The washed cells were resuspended in cold buffer, lysed in a glass Teflon homogenizer and then centrifuged at 35,300 g for 30 minutes at 4° C. The supernatant was removed and the pellet resuspended in cold buffer and homogenized. Two hundred μl aliquots (3.2 mg/ml) were stored at -80° C.
Briefly, 10 μl of membrane prep (80 μg/ml) was preincubated with 10 μl of test compound or reference compound in buffer (25 mM HEPES, 0.2% (w/v) bovine serum albumin (BSA), pH 7.6) at 32° C. for 10 minutes. Five μl of reaction buffer (25 mM HEPES, 0.2% (w/v) BSA, 13 mM (CH3 C00)2 Mg.4H2 O, 4 mM adenosine-5'-triphosphate (ATP), 40 nM guanosine 5'-O-3'thiotriphosphate (GTP-∂-s), 25 mM creatine phosphate, creatine kinase 250 U/ml, 1 mM 3-Isobutyl-1-methyl xanthine (IBMX), pH 7.6) was added and incubated for an additional 30 minutes. Incubations were stopped by adding 25 μl 10 mM EDTA and fluorescent tracer (cAMP-β phycoerythrin conjugate).
This assay, a particle concentration fluorescence immunoassay, was based on the competition between unlabelled cAMP and a fixed amount of fluorescent labelled cAMP for a limited number of binding sites on a cAMP specific antibody. By keeping the quantity of fluorescent ligand and antibody fixed, the amount of fluorescent ligand bound by the antibody was inversely proportional to the concentration of unlabelled cAMP. The antibody-bound cAMP was then captured by anti-rabbit IgG coated assay particles. Separation of the bound antibody fraction was achieved by filtration on Fluoricon®-Ca Assay Plates. After measuring the fluorescence in the pellet, the amount of bound fluorescent cAMP was calculated. The rate of cAMP production (pmol/min/mg) was then determined by interpolation from a standard curve.

cAMP produced (Dose 0.005 nM): 21.165 pmol/min/mg | cAMP produced (Dose 0.01 nM): 21.743 pmol/min/mg | cAMP produced (Dose 0.02 nM): 20.678 pmol/min/mg | cAMP produced (Dose 0.05 nM): 22.602 pmol/min/mg | cAMP produced (Dose 0.1 nM): 22.033 pmol/min/mg | cAMP produced (Dose 0.4 nM): 21.460 pmol/min/mg | cAMP produced (Dose 1 nM): 21.588 pmol/min/mg | cAMP produced (Dose 4 nM): 21.046 pmol/min/mg | cAMP produced (Dose 10 nM): 22.320 pmol/min/mg | cAMP produced (Dose 100 nM): 19.156 pmol/min/mg
Structure (SMILES): CC[C@H](C)[C@H](NC(=O)[C@H](Cc1ccccc1)NC(=O)[C@H](CCC(=O)O)NC(=O)[C@H](CCCCN)NC(=O)[C@H](C)NC(=O)[C@H](C)NC(=O)[C@H](CCC(N)=O)NC(=O)CNC(=O)[C@H](CCC(=O)O)NC(=O)[C@H](CC(C)C)NC(=O)[C@H](Cc1ccc(O)cc1)NC(=O)[C@H](CO)NC(=O)[C@H](CO)NC(=O)[C@@H](NC(=O)[C@H](CC(=O)O)NC(=O)[C@H](CO)NC(=O)[C@@H](NC(=O)[C@H](Cc1ccccc1)NC(=O)[C@@H](NC(=O)CNC(=O)[C@@H](N)CCC(=O)O)[C@@H](C)O)[C@@H](C)O)C(C)C)C(=O)N[C@@H](C)C(=O)N[C@@H](Cc1c[nH]c2ccccc12)C(=O)N[C@@H](CC(C)C)C(=O)N[C@H](C(=O)N[C@@H](CCCCN)C(=O)NCC(=O)N[C@@H](CCCNC(=N)N)C(N)=O)C(C)C [GLP-1(9-36)NH2]
